Measured values reported in patent publication US11618747B2, “LXR modulators with bicyclic core moiety” (OrsoBio, Inc., priority 2018, dated 2023).
Where two headings read alike, the source gives them in different places.

Assays:
[1] = target: T1, LXRβ ligand-binding domain (Homo sapiens, UniProt P55055, DUP175-175); test: TR-FRETβ activity assay (NCoA3 coactivator peptide recruitment); type: biochemical
T1 construct: amino acids 156-461; NP009052; made in house; host or cells: E. coli
T1 sequence (P55055 with tags, fused parts or gaps DUP175-175 limits assumed): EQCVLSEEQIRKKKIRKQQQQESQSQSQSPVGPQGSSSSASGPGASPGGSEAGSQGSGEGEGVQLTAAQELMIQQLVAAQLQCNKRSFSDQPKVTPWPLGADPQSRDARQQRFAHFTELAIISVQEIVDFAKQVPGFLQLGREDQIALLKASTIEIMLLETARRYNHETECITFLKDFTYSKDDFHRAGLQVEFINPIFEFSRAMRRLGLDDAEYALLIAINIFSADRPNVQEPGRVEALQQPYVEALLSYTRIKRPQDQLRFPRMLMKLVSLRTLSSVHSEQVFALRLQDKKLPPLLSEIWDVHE
Method in brief: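 GST-tagged human LXRβ LBD (aa 156-461, E. coli) at 76 nM with 400 nM biotinylated NCoA3 peptide in Tris/HCl pH 6.8, 240 mM KCl, BSA, 0.002% Triton-X-100, plus 1 μM 24(S)-25-epoxycholesterol as prestimulating agonist. Compounds at 50 μM down to 0.002 μM, 1 h at 4 °C. Coactivator recruitment by TR-FRET (Tb cryptate/XL665, 615/665 nm), triplicates.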

full length (FL) LXRα = target: T2, full length (FL) LXRα (Homo sapiens, UniProt Q13133); test: LXR Gal4 reporter transient transfection assay (FL-M2H Gal4α); type: cell-based; settings: HEK293 cells; for EC50: full length LXRα, read-out: FL-M2H Gal4α (EC50 range)
T2 construct: the full length (FL) proteins of LXRα (amino acids 1-447); NP005684; expressed in transfected cells; host or cells: HEK293
T2 sequence (Q13133 1-447): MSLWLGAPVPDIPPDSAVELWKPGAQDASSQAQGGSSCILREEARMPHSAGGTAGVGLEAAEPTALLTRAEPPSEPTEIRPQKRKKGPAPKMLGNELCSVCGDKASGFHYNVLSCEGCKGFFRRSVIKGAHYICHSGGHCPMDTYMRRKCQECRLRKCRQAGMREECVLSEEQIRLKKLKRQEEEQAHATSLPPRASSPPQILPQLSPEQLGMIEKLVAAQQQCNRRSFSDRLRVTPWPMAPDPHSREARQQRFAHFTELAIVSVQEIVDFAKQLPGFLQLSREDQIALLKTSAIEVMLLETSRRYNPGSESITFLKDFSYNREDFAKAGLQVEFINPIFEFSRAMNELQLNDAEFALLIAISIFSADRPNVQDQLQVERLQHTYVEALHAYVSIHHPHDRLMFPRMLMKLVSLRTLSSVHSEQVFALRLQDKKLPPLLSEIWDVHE
Method in brief: (§1)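 Mammalian two-hybrid in HEK293: AD-LXR (FL or LBD) + BD-cofactor (SRC1 coactivator or NCoR corepressor domain), pFR-Luc reporter, pRL-CMV normaliser; PEI transfection. Compound added 4 h later (DMSO ≤0.2% final), 16 h incubation at 37 °C. Firefly/Renilla luminescence measured sequentially in lysate.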

full length (FL) LXRβ = target: T3, full length (FL) LXRβ (Homo sapiens, UniProt P55055, DUP175-175); test: LXR Gal4 reporter transient transfection assay (FL-M2H Gal4β); type: cell-based; settings: HEK293 cells; for EC50: full length LXRβ, read-out: FL-M2H Gal4β (EC50 range)
T3 construct: the full length (FL) proteins of LXRα (amino acids 1-447); NP005684; NP009052; expressed in transfected cells; host or cells: HEK293
T3 sequence (P55055 with tags, fused parts or gaps DUP175-175): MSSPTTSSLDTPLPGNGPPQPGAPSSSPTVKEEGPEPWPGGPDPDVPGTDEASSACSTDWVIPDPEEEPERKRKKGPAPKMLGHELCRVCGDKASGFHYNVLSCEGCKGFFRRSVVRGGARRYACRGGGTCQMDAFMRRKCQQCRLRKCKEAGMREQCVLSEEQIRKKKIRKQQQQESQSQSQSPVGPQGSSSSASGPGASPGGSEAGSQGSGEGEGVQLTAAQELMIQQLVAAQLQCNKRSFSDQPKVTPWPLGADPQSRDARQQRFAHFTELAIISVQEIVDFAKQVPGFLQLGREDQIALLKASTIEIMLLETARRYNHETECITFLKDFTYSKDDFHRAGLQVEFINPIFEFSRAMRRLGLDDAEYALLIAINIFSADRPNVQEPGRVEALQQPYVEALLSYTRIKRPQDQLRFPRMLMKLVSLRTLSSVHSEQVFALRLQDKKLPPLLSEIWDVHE
Method in brief: as §1

[2] = TR-FRET, 1 μM 24(S)-25-epoxycholesterol prestimulation, read-out: FRETβ (EC50 range)

Row | SMILES | EC50 [1, 2] [nM] | EC50 (full length (FL) LXRα) [nM] | EC50 (full length (FL) LXRβ) [nM] | FRETβ efficacy (value in brackets) ([1]; 1 μM 24(S)-25-epoxycholesterol as prestimulating agonist) [%] | EC50 ([1]; 1 μM 24(S)-25-epoxycholesterol as prestimulating agonist, read-out: FRETβ potency) [nM] | FL-M2H Gal4α potency (full length (FL) LXRα) | FL-M2H Gal4β potency (full length (FL) LXRβ)
1 | Cc1ccc(S(=O)(=O)n2c(-c3cccc(C4CC5(CC(C(=O)O)C5)C4)c3)c(-c3ccsc3C#N)c3cc(F)ccc32)cc1 (stereo not shown) [3/65] | 100 to 1000 | < 100 | < 100 |  |  |  | 
2 | Cc1ccc(S(=O)(=O)n2c(-c3cccc(C#CC(C)(C)C(=O)O)c3)c(-c3ccsc3C#N)c3cc(F)ccc32)cc1 [5/4] | 1000 to 10000 | 100 to 1000 | < 100 |  |  |  | 
3 | N#Cc1ccccc1-c1c(-c2cccc(-c3ccc(C(=O)O)cc3Cl)c2)n(S(=O)(=O)c2ccc(C(F)F)cc2)c2cccnc12 [8/7] | 100 to 1000 | 100 to 1000 | < 100 |  |  |  | 
4 | N#Cc1cccc(C#N)c1-c1c(-c2cccc(-c3ccc(C(=O)O)cc3F)c2)n(S(=O)(=O)C2CCC(C(F)(F)F)CC2)c2ccc(F)cc12 (stereo not shown) [11/64] | 100 to 1000 | < 100 | < 100 |  |  |  | 
5 | Cn1cccc(-c2c(-c3cccc(-c4ccc(C(=O)O)cc4Cl)c3)n(S(=O)(=O)c3ccc(C(F)F)cc3)c3ccc(F)cc23)c1=O [11/47] | 100 to 1000 | 100 to 1000 | 100 to 1000 |  |  |  | 
6 | Cc1ccc(S(=O)(=O)n2c(-c3cccc(N4CCC(C)(C(=O)O)CC4)c3)c(-c3ccsc3C#N)c3cc(F)ccc32)cc1 [3/50] | 100 to 1000 | < 100 | < 100 |  |  |  | 
7 | Cc1ccc(S(=O)(=O)n2c(-c3cccc(-c4ccc(C(=O)O)cc4)c3)c(-c3ccsc3C#N)c3cc(F)cc(O)c32)cc1 [3/54] | 100 to 1000 | < 100 | < 100 |  |  |  | 
8 | Cc1ccc(S(=O)(=O)n2c(-c3cccc(-c4ccc(CO)c(S(=O)(=O)CC(=O)O)c4)c3)c(-c3ccsc3C#N)c3ccccc32)cc1 [5/1] | 100 to 1000 | 1000 to 10000 | 100 to 1000 |  |  |  | 
9 | Cc1ccc(S(=O)(=O)n2c(-c3cccc(N4CC(C(=O)O)C4)c3)c(-c3ccsc3C#N)c3cc(F)ccc32)c(F)c1 [3/14] | 1000 to 10000 | 100 to 1000 | 100 to 1000 |  |  |  | 
10 | N#Cc1cccc(C#N)c1-c1c(-c2cccc(-c3c(F)cc(OCC(=O)O)cc3F)c2)n(S(=O)(=O)c2ccc(C(F)F)cc2)c2ccc(F)cc12 [3/71] | < 100 | < 100 | < 100 |  |  |  | 
11 | O=C(NCCS(=O)(=O)O)C1CC1c1cccc(-c2c(-c3c(Cl)cccc3Cl)c3cc(F)ccc3n2S(=O)(=O)c2ccc(C(F)F)cc2)c1 (stereo not shown) [10/4] | < 100 | 100 to 1000 | < 100 |  |  |  | 
12 | Cc1ccc(S(=O)(=O)n2c(-c3cccc(N4CC(C(=O)O)C4)c3)c(-c3ccsc3CCO)c3cc(F)ccc32)cc1 [3/27] | 1000 to 10000 | 100 to 1000 | 100 to 1000 |  |  |  | 
13 | Cc1ccc(S(=O)(=O)n2c(-c3cccc(N4CC(C(=O)O)C4)c3)c(-c3csc(C#N)c3)c3cc(F)ccc32)cc1 [C3/29, reference compound] |  |  |  | −102 | 4230 | inactive | inactive
14 | N#Cc1sccc1-c1c(-c2cccc(-c3cc(F)c(C(=O)O)cc3Cl)c2)n(S(=O)(=O)c2ccc(C(F)F)cc2)c2ccc(F)cc12 [11/8] | < 100 | < 100 | < 100 |  |  |  | 
15 | N#Cc1sccc1-c1c(-c2cccc(N3CC(C(=O)O)C3)c2)n(S(=O)(=O)c2ccc3ccccc3c2)c2ccc(F)cc12 [3/13] | 1000 to 10000 | < 100 | < 100 |  |  |  | 
16 | Cc1ccc(S(=O)(=O)n2c(-c3cccc(-c4ccc(C(C)(C)N)cc4Cl)c3)c(-c3ccsc3C#N)c3cc(F)ccc32)cc1 [2/2] | 100 to 1000 | 100 to 1000 | 100 to 1000 |  |  |  | 

Row | SMILES | EC50 [1, 2] [nM] | EC50 (full length (FL) LXRα) [nM] | EC50 (full length (FL) LXRβ) [nM] | FRETβ efficacy (value in brackets) ([1]; 1 μM 24(S)-25-epoxycholesterol as prestimulating agonist) [%] | EC50 ([1]; 1 μM 24(S)-25-epoxycholesterol as prestimulating agonist, read-out: FRETβ potency) [nM] | FL-M2H Gal4α potency (full length (FL) LXRα) | FL-M2H Gal4β potency (full length (FL) LXRβ)
17 | Cc1ccc(S(=O)(=O)n2c(-c3cccc(N4CC[C@@H](C(=O)O)C[C@H]4C)c3)c(-c3ccsc3C#N)c3cc(F)ccc32)cc1 [5/9] | 100 to 1000 | 100 to 1000 | < 100 |  |  |  | 
18 | Cc1ccc(S(=O)(=O)n2c(-c3cccc(-c4ccc(C(=O)O)cc4Cl)c3)c(-c3cccc(F)c3C#N)c3cc(F)ccc32)cc1 [11/1] | < 100 | < 100 | < 100 |  |  |  | 
19 | N#Cc1cccc(C#N)c1-c1c(-c2cccc(C34CCC(C(=O)O)(CC3)CC4)c2)n(S(=O)(=O)c2ccc(C(F)F)cc2)c2ccc(F)cc12 [11/58] | < 100 | < 100 | < 100 |  |  |  | 
20 | Cc1ccc(S(=O)(=O)n2c(-c3cc(N4CC(C(=O)O)C4)ccc3F)c(-c3ccsc3C#N)c3cc(F)ccc32)cc1 [3/41] | 1000 to 10000 | < 100 | < 100 |  |  |  | 
21 | Cc1ccc(S(=O)(=O)n2c(-c3cccc(C4(C)CC4C(=O)O)c3)c(-c3ccsc3C#N)c3cc(F)ccc32)cc1 (stereo not shown) [3/1] | 100 to 1000 | 100 to 1000 | 100 to 1000 |  |  |  | 
22 | Cc1ccc(S(=O)(=O)n2c(-c3cccc(-c4ccc(C(C)(C)C(=O)O)c(S(C)(=O)=O)c4)c3)c(-c3ccsc3C#N)c3cc(F)ccc32)cc1 [2/18] | 100 to 1000 | 100 to 1000 | < 100 |  |  |  | 
23 | Cc1ccc(S(=O)(=O)n2c(-c3cccc(N4CC(C(=O)O)C4)c3)c(-c3ccsc3C(F)(F)F)c3cc(F)ccc32)cc1 [3/30] | 100 to 1000 | < 100 | < 100 |  |  |  | 
24 | N#Cc1sccc1-c1c(-c2cccc(N3CC(C(=O)O)C3)c2)n(S(=O)(=O)c2ccc3c(c2)CCC3)c2ccc(F)cc12 [3/12] | 100 to 1000 | < 100 | < 100 |  |  |  | 
25 | Cc1ccc(S(=O)(=O)n2c(-c3cccc(C4CC4C(=O)O)c3)c(-c3ccsc3C#N)c3ccncc32)cc1 (stereo not shown) [4/1] | 1000 to 10000 | 100 to 1000 | < 100 |  |  |  | 
26 | Cc1ccc(S(=O)(=O)n2c(-c3cccc(-c4ccc(C(=O)O)c(F)c4Cl)c3)c(-c3ccsc3C#N)c3cc(F)ccc32)cc1 [12/3] | 100 to 1000 | < 100 | < 100 |  |  |  | 
27 | Cc1ccc(S(=O)(=O)n2c(-c3ccnc(-c4ccc(C(=O)O)cc4)c3)c(-c3ccsc3C#N)c3cc(F)ccc32)cc1 [5/6] | 100 to 1000 | < 100 | < 100 |  |  |  | 
28 | N#Cc1cccc(C#N)c1-c1c(-c2cccc(-c3c(F)c(F)c(C(=O)O)c(F)c3F)c2)n(S(=O)(=O)c2ccc(C(F)F)cc2)c2ccc(F)cc12 [11/54] | < 100 | < 100 | < 100 |  |  |  | 
29 | COC(=O)C(C)(C)N(C)C(=O)C1CN(c2cccc(-c3c(-c4ccsc4C#N)c4cc(F)ccc4n3S(=O)(=O)c3ccc(C)cc3)c2)C1 [32/2] | 100 to 1000 | 100 to 1000 | 100 to 1000 |  |  |  | 
30 | Cc1ccc(S(=O)(=O)n2c(-c3cccc(N4CC(C(=O)O)C4)c3)c(-c3ccccc3C3COC3)c3cc(F)ccc32)cc1 [3/31] | 100 to 1000 | 100 to 1000 | 100 to 1000 |  |  |  | 
31 | N#Cc1cccc(C#N)c1-c1c(-c2cccc([C@H]3CC[C@@H](C(=O)O)CC3)c2)n(S(=O)(=O)c2ccc(C(F)F)cc2)c2ccc(F)cc12 [11/61] | 100 to 1000 | < 100 | < 100 |  |  |  | 
